Reference: PubChem BioAssay (NCI)
Several values for one entry are separate records, joined by “and”; a condition that tells them apart may be missing. Equal entries are not always repeated.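 1) Cells in 96-well plates. 2) Compound, 48 h, 5 concentrations. 3) Linear interpolation between surrounding doses. 4) Unreached endpoint = highest concentration. Abbreviation: GI50, concentration required for 50% inhibition of growth. TGI: concentration producing complete growth inhibition.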

Tests used:
Assay in all cases: NCI anticancer screen, dose series, 48 h
BT-549 breast = system: BT-549 breast
HS 578T breast = system: HS 578T breast
NCI/ADR-RES ovarian = system: NCI/ADR-RES ovarian
DU-145 prostate = system: DU-145 prostate
MDA-MB-231 breast = system: MDA-MB-231 breast
SNB-78 CNS = system: SNB-78 CNS
M19-MEL melanoma = system: M19-MEL melanoma
DLD-1 colon = system: DLD-1 colon
DMS 273 small cell lung = system: DMS 273 small cell lung

Cc1c(-c2ccc(N3CCc4cccc(C(=O)Nc5nc6ccccc6s5)c4C3)nc2C(=O)O)cnn1CC12CC3CC(CC(C3)C1)C2
GI50 (BT-549 breast): 3.73 µM
TGI (BT-549 breast): 16.4 µM
GI50 (HS 578T breast): 3.77 µM
TGI (HS 578T breast): 38.4 µM
GI50 (NCI/ADR-RES ovarian): 14.7 µM
TGI (NCI/ADR-RES ovarian): 38 µM
GI50 (DU-145 prostate): 15.2 µM
TGI (DU-145 prostate): 29.1 µM

COc1cc([C@H]2c3cc(O)c(OC)cc3C[C@]3(O)[C@@H]2CO[C@@H]3O)ccc1O
TGI (BT-549 breast): > 100 µM
TGI (HS 578T breast): > 100 µM
TGI (NCI/ADR-RES ovarian): > 100 µM
TGI (MDA-MB-231 breast): > 100 µM
TGI (DU-145 prostate): > 100 µM

Cc1cccc(Cc2cnc(NC(=O)CCCOc3ccc(Cl)cc3)s2)c1
GI50 (BT-549 breast): > 100 µM
TGI (BT-549 breast): > 100 µM
GI50 (HS 578T breast): 5.32 µM
TGI (HS 578T breast): > 100 µM
GI50 (NCI/ADR-RES ovarian): 29.3 µM
TGI (NCI/ADR-RES ovarian): > 100 µM
GI50 (MDA-MB-231 breast): 21.2 µM
TGI (MDA-MB-231 breast): > 100 µM
GI50 (DU-145 prostate): 3.91 µM
TGI (DU-145 prostate): > 100 µM

Cc1c2cc[n+](C)cc2c(C)c2c1[nH]c1ccc(Oc3ccccc3)cc12
GI50 (SNB-78 CNS): 0.809 µM and 0.266 µM
TGI (SNB-78 CNS): 3.47 µM
GI50 (M19-MEL melanoma): 2.56 µM and 3.23 µM
TGI (M19-MEL melanoma): 24.5 µM and > 100 µM
TGI (DLD-1 colon): > 100 µM
GI50 (DMS 273 small cell lung): 1.15 µM
TGI (DMS 273 small cell lung): > 100 µM

COc1ccc(C[C@H](N)C(=O)N[C@@H]2[C@@H](CO)OC(n3cnc4c(N(C)C)ncnc43)[C@@H]2O)cc1 (stereo partly specified)
GI50 (BT-549 breast): 0.588 µM
TGI (BT-549 breast): 1.83 µM
GI50 (HS 578T breast): 0.304 µM
TGI (HS 578T breast): 2.11 µM
GI50 (NCI/ADR-RES ovarian): 42.7 µM
TGI (NCI/ADR-RES ovarian): 50 µM
GI50 (MDA-MB-231 breast): 0.466 µM
TGI (MDA-MB-231 breast): 1.22 µM
GI50 (DU-145 prostate): 0.458 µM
TGI (DU-145 prostate): 2.53 µM

O=C(/C=C/c1ccc(OCC(=O)N2CCN(c3ccccc3)CC2)cc1)c1ccccc1
TGI (SNB-78 CNS): > 100 µM
TGI (M19-MEL melanoma): > 100 µM
TGI (DLD-1 colon): > 100 µM

O=C(c1ccccc1)c1ccc(N2C(=O)C3C4c5ccccc5C(/C=C/C(=O)c5ccccn5)(c5ccccc54)C3C2=O)cc1 (stereo unspecified)
GI50 (BT-549 breast): 2.62 µM
TGI (BT-549 breast): 9.88 µM
GI50 (HS 578T breast): 2.98 µM
TGI (HS 578T breast): > 100 µM
GI50 (NCI/ADR-RES ovarian): 2.68 µM
TGI (NCI/ADR-RES ovarian): 12.8 µM
GI50 (MDA-MB-231 breast): 2.34 µM
TGI (MDA-MB-231 breast): 6.4 µM
GI50 (DU-145 prostate): 2.78 µM
TGI (DU-145 prostate): 8.1 µM

ClCc1ccc(Cn2cnc3nc(Cl)nc(Cl)c32)cc1
GI50 (BT-549 breast): 1.87 µM
TGI (BT-549 breast): 3.48 µM
GI50 (HS 578T breast): 19.2 µM
TGI (HS 578T breast): 44.8 µM
GI50 (NCI/ADR-RES ovarian): 1.77 µM
TGI (NCI/ADR-RES ovarian): 3.36 µM
GI50 (MDA-MB-231 breast): 0.444 µM
TGI (MDA-MB-231 breast): 0.926 µM
GI50 (DU-145 prostate): 0.444 µM
TGI (DU-145 prostate): 1.12 µM

O=C(Nc1cccc(C(F)(F)F)c1)Nc1ccc(OCc2nnc(-c3ccccc3)o2)c(F)c1
GI50 (HS 578T breast): 2.5 µM
TGI (HS 578T breast): 14.7 µM
GI50 (NCI/ADR-RES ovarian): 4.61 µM
TGI (NCI/ADR-RES ovarian): 26.9 µM
GI50 (MDA-MB-231 breast): 3.3 µM
TGI (MDA-MB-231 breast): 22.3 µM
GI50 (DU-145 prostate): 6.06 µM
TGI (DU-145 prostate): 28.3 µM

Cc1ccc(S(=O)(=O)NCc2cccc([N+](=O)[O-])c2)cc1
TGI (BT-549 breast): > 100 µM
TGI (HS 578T breast): > 100 µM
TGI (NCI/ADR-RES ovarian): > 100 µM
TGI (MDA-MB-231 breast): > 100 µM
TGI (DU-145 prostate): > 100 µM

CN(C)C(=O)c1cc2cnc(Nc3ccc(N4CCNCC4)cn3)nc2n1C1CCCC1
GI50 (HS 578T breast): 13.8 µM
TGI (HS 578T breast): 53.5 µM
GI50 (NCI/ADR-RES ovarian): 37.8 µM
TGI (NCI/ADR-RES ovarian): > 100 µM
GI50 (MDA-MB-231 breast): 8.48 µM
TGI (MDA-MB-231 breast): 74.5 µM
GI50 (DU-145 prostate): 23.5 µM
TGI (DU-145 prostate): > 100 µM

O=C1OC(c2ccccc2)=N/C1=C\c1ccc(N(CCCl)CCCl)cc1
TGI (BT-549 breast): > 100 µM
TGI (HS 578T breast): > 100 µM
TGI (NCI/ADR-RES ovarian): > 100 µM
TGI (MDA-MB-231 breast): > 100 µM
TGI (DU-145 prostate): > 100 µM

COc1ccc(S(=O)(=O)NCCCNc2nccc(-c3c(-c4ccc(F)cc4)nc4sccn34)n2)cc1
GI50 (BT-549 breast): 5.42 µM
TGI (BT-549 breast): 59.4 µM
GI50 (HS 578T breast): 3.58 µM
TGI (HS 578T breast): > 100 µM
GI50 (NCI/ADR-RES ovarian): 5.23 µM
TGI (NCI/ADR-RES ovarian): > 100 µM
GI50 (MDA-MB-231 breast): 7.27 µM
TGI (MDA-MB-231 breast): > 100 µM
GI50 (DU-145 prostate): 7.14 µM
TGI (DU-145 prostate): > 100 µM

Cn1c(=O)c(Oc2ccc(F)cc2F)cc2cnc(NC3CCC(O)CC3)nc21 (stereo unspecified)
GI50 (BT-549 breast): > 25 µM
TGI (BT-549 breast): > 25 µM
GI50 (HS 578T breast): > 25 µM
TGI (HS 578T breast): > 25 µM
GI50 (NCI/ADR-RES ovarian): > 25 µM
TGI (NCI/ADR-RES ovarian): > 25 µM
GI50 (MDA-MB-231 breast): > 25 µM
TGI (MDA-MB-231 breast): > 25 µM
GI50 (DU-145 prostate): > 25 µM
TGI (DU-145 prostate): > 25 µM

Nc1ccc(N)c2c1C(=O)c1cccc([N+](=O)[O-])c1C2=O
GI50 (BT-549 breast): 2.54 µM
TGI (BT-549 breast): > 31.2 µM
GI50 (HS 578T breast): 2.47 µM
TGI (HS 578T breast): 26.2 µM
GI50 (NCI/ADR-RES ovarian): 4.52 µM
TGI (NCI/ADR-RES ovarian): > 100 µM
GI50 (MDA-MB-231 breast): 27 µM
TGI (MDA-MB-231 breast): > 100 µM
GI50 (DU-145 prostate): 0.662 µM
TGI (DU-145 prostate): 6.9 µM

O=C1C(=O)c2c(ccc3ccccc23)-c2ccccc21
GI50 (BT-549 breast): 2.05 µM
TGI (BT-549 breast): 4.62 µM
GI50 (HS 578T breast): 2.05 µM
TGI (HS 578T breast): 6 µM
GI50 (NCI/ADR-RES ovarian): 1.19 µM
TGI (NCI/ADR-RES ovarian): 5.88 µM
GI50 (MDA-MB-231 breast): 1.63 µM
TGI (MDA-MB-231 breast): 8.08 µM
GI50 (DU-145 prostate): 1.4 µM
TGI (DU-145 prostate): 2.73 µM

CC(C)(CCc1nc2ccccc2[nH]1)C(=O)O
TGI (BT-549 breast): > 100 µM
TGI (HS 578T breast): > 100 µM
TGI (NCI/ADR-RES ovarian): > 100 µM
TGI (MDA-MB-231 breast): > 100 µM
TGI (DU-145 prostate): > 100 µM

C=CCCC1(CCP(=O)(c2ccccc2)c2ccccc2)OCCO1
TGI (BT-549 breast): > 100 µM
TGI (HS 578T breast): > 100 µM
TGI (NCI/ADR-RES ovarian): > 100 µM
TGI (MDA-MB-231 breast): > 100 µM
TGI (DU-145 prostate): > 100 µM

COc1cccc2c(Nc3ccc(C(=O)NCCN4CCNCC4)cc3)cc(-c3ccccc3)nc12
GI50 (BT-549 breast): 35.1 µM
TGI (BT-549 breast): > 100 µM
GI50 (HS 578T breast): 46.9 µM
TGI (HS 578T breast): > 100 µM
GI50 (NCI/ADR-RES ovarian): > 100 µM
TGI (NCI/ADR-RES ovarian): > 100 µM
GI50 (MDA-MB-231 breast): 19.9 µM
TGI (MDA-MB-231 breast): > 100 µM
GI50 (DU-145 prostate): 71 µM
TGI (DU-145 prostate): > 100 µM

O=C(/C=C/N1CCN(c2cccc(Cl)c2)CC1)c1ccc(Cl)cc1
GI50 (BT-549 breast): 19.3 µM
TGI (BT-549 breast): 50.2 µM
GI50 (HS 578T breast): 26.9 µM
TGI (HS 578T breast): 69.6 µM
GI50 (NCI/ADR-RES ovarian): 33.2 µM
TGI (NCI/ADR-RES ovarian): > 100 µM
GI50 (MDA-MB-231 breast): 30 µM
TGI (MDA-MB-231 breast): > 100 µM
GI50 (DU-145 prostate): 38.4 µM
TGI (DU-145 prostate): > 100 µM

O=C(Nc1cccc(C(F)(F)F)c1)Nc1cc(S(=O)(=O)NC2CC2)ccc1-c1ccsc1
GI50 (HS 578T breast): 8.96 µM
TGI (HS 578T breast): 35.8 µM
GI50 (NCI/ADR-RES ovarian): 6.05 µM
TGI (NCI/ADR-RES ovarian): 26.9 µM
GI50 (MDA-MB-231 breast): 3.43 µM
TGI (MDA-MB-231 breast): 14.8 µM
GI50 (DU-145 prostate): 5.41 µM
TGI (DU-145 prostate): 20.3 µM

COc1ccc(Cl)cc1Nc1nc(C(F)(F)F)ccc1C(=O)N/N=C/c1ccc(Cl)cc1
GI50 (BT-549 breast): 0.108 µM
TGI (BT-549 breast): 0.932 µM
GI50 (HS 578T breast): 22.3 µM
TGI (HS 578T breast): > 100 µM
GI50 (NCI/ADR-RES ovarian): 6.35 µM
TGI (NCI/ADR-RES ovarian): > 100 µM
GI50 (MDA-MB-231 breast): 5.44 µM
TGI (MDA-MB-231 breast): > 100 µM
GI50 (DU-145 prostate): 7.02 µM
TGI (DU-145 prostate): > 100 µM

Cn1c(=O)c(-c2c(Cl)cccc2Cl)cc2cnc(Nc3ccc(N4CCOCC4)cc3)nc21
GI50 (BT-549 breast): 0.109 µM
GI50 (NCI/ADR-RES ovarian): 0.0158 µM
TGI (NCI/ADR-RES ovarian): 0.09 µM
GI50 (MDA-MB-231 breast): < 0.0169 µM

COc1cc(-c2nn(-c3cccc(NC(=O)c4cccc(C(F)(F)F)c4)c3)cc2-c2ccncc2)ccc1Cl
GI50 (BT-549 breast): 2.87 µM
TGI (BT-549 breast): 46.8 µM
GI50 (HS 578T breast): 1.07 µM
TGI (HS 578T breast): > 50 µM
GI50 (NCI/ADR-RES ovarian): 1.09 µM
TGI (NCI/ADR-RES ovarian): 3.17 µM
GI50 (MDA-MB-231 breast): 1.24 µM
TGI (MDA-MB-231 breast): 9.96 µM
GI50 (DU-145 prostate): 1.76 µM
TGI (DU-145 prostate): 32.1 µM
